Test results as given in US4378366A, “2-[Trifluoroethylamine]oxazolines” (Science Union et Cie, priority 1978, dated 1983).

Assay: solubility in dilute aqueous hydrochloric acid
Assay type: physicochemical
Conditions: dilute or N/10 aqueous hydrochloric acid; hydrochloride formed

Structure (SMILES) | solubility in hydrochloric acid solution
CC(NC1=NCCO1)C(F)(F)F (racemic) [I, dl 2-(α-trifluoromethylethylamino)oxazoline] | soluble in the dilute aqueous solutions of hydrochloric acid
FC(F)(F)C(NC1=NCCO1)C1CC1 (racemic) [II, dl 2-[(1-trifluoromethyl 1-cyclopropyl)methylamino]oxazoline] | easily soluble in an aqueous solution of the just calculated amount of N/10 hydrochloric acid
CC(C)CC(NC1=NCCO1)C(F)(F)F (racemic) [III, dl 2-(1-trifluoromethyl 3-methylbutylamino)oxazoline] | soluble in dilute hydrochloric acid
FC(F)(F)C(F)(F)C(NC1=NCCO1)C1CCCCC1 (racemic) [X, dl 2-[(1-pentafluoroethyl 1-cyclohexyl)methylamino]oxazoline] | soluble in N/10 hydrochloric acid solutions
FC(F)(F)C(NC1=NCCO1)C1CCCCC1 (single isomer, unassigned) [IV, 2-[(1-trifluoromethyl 1-cyclohexyl)methylamino]oxazoline (dextrorotatory isomer)] | soluble in dilute hydrochloric acid
FC(F)(F)C(NC1=NCCCN1)C1CCCCC1 (single isomer, unassigned) [XI, 2-[(1-trifluoromethyl 1-cyclohexyl)methylamino]tetrahydropyrimidine (laevorotatory isomer)] | soluble in N/10 hydrochloric acid solutions
